The test system of series [1] is RAW264.7. Briefly: Antiinflammatory activity against mouse RAW264.7 cells stably transfected with luciferase reporter gene assessed as inhibition of LPS-induced NF-kB activation preincubated for 30 min followed by LPS stimulation for 8 hrs by luciferase based assay. The format is functional, cell-based. (Reporter assays use an easily measured gene product as a stand-in for the process of interest.)

The subject of another series is BMDM. Nature of the series: Anti-osteoclastogenesis activity in RANKL/MCSF-induced mouse BMDM cells assessed as inhibition of osteoclast differentiation at 5 to 20 uM incubated for 3 days by TRAP-staining based microscopic analysis. The format is functional, cell-based. The settings on record: dose 5-20 µM, time 3.0 day.
Series [2] relates to RAW264.7. Nature of the series: Cytotoxicity against mouse RAW264.7 cells assessed as reduction in cell viability at 5 to 20 uM incubated for 72 hrs by MTT assay. The format is toxicity, cell-based. The settings on record: raw264.7, 72 h, dose 5-20 µM. (Tetrazolium assays rely on reduction of a dye to a coloured formazan, in cell work by metabolically active cells.)
In series [3] the target is T1, Mitogen-activated protein kinase kinase kinase 7 (Mus musculus) (UniProt Q62073).
T1 sequence (whole entry): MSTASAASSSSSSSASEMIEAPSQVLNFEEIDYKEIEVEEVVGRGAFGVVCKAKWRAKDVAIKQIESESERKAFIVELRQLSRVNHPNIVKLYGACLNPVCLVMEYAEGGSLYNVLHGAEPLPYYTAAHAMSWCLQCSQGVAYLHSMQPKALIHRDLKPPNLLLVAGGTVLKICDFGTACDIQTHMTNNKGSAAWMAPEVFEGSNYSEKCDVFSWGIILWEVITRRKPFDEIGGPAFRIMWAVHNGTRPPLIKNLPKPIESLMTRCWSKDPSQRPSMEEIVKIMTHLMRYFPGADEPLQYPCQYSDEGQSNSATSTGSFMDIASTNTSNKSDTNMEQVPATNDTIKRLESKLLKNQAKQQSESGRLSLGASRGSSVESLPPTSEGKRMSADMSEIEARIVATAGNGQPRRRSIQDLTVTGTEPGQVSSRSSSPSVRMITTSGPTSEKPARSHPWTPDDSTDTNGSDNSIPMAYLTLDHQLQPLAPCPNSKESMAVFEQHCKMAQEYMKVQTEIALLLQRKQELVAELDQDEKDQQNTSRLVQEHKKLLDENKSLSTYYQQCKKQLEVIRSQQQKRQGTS
Briefly: Inhibition of TAK1 activation in mouse RAW264.7 cells at 5 to 20 uM preincubated for 4 hrs followed by RANKL addition and measured after 30 mins by Western blot analysis. The settings on record: dose 5-20 µM, time 4.5 hrs. The format is cell-based. In general terms: A western blot detects proteins with antibodies after separation by electrophoresis.

The target in series [4] is T2, NF-kappa-B inhibitor alpha (Mus musculus) (UniProt Q9Z1E3).
T2 sequence (whole entry): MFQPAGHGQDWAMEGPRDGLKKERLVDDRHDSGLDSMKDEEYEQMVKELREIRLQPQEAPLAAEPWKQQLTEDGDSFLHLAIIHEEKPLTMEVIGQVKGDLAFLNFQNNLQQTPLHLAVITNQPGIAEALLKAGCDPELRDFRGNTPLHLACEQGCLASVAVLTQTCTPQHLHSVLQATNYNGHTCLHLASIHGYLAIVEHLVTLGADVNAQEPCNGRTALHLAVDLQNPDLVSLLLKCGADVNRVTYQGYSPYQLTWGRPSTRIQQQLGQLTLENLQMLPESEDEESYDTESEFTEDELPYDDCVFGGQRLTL
Nature of the series: Inhibition of IkappaBalpha phosphorylation in mouse RAW264.7 cells at 5 to 20 uM preincubated for 4 hrs followed by RANKL addition and measured after 30 mins by Western blot analysis. The settings on record: dose 5-20 µM. The format is cell-based.

The test system of series [5] is RAW264.7. Briefly: Upregulation of cytoplasmic p65 level in mouse RAW264.7 cells at 5 to 20 uM preincubated for 4 hrs followed by RANKL addition and measured after 30 mins by Western blot analysis. The format is functional, cell-based. The settings on record: dose 5-20 µM, time 4.5 hrs.
The test system of series [6] is RAW264.7. Briefly: Inhibition of p65 translocation in mouse RAW264.7 cells at 5 to 20 uM preincubated for 4 hrs followed by RANKL addition and measured after 30 mins by Western blot analysis. The settings on record: dose 5-20 µM, time 4.5 hrs. The format is cell-based.
Series [7] relates to RAW264.7. Nature of the series: Inhibition of p65 translocation in mouse RAW264.7 cells at 20 uM preincubated with RANKL for 24 hrs followed by compound addition and measured after 4 hrs by immunofluorescence analysis. The format is cell-based.
The subject of series [8] is RAW264.7. Nature of the series: Downregulation of nuclear NFATc1 expression in mouse RAW264.7 cells at 20 uM preincubated for 4 hrs followed by RANKL addition and measured after 24 hrs by Western blot analysis. The format is functional, cell-based. The settings on record: time 28.0 hrs.

Drawing on ChEMBL document CHEMBL5634172, “Peniditerpenoids A and B: Oxidized Indole Diterpenoids with Osteoclast Differentiation Inhibitory Activity from a Mangrove-Sediment-Derived Penicillium sp” (J Nat Prod, 2024), this text covers IC50, Activity and inhibition for 2 compounds.

For orientation: IC50 means the concentration at which inhibition is half-maximal.

Active and inactive are the calls of the source. The rule behind the calls is not given here.

In the case of `CC1(C)O[C@@]23CC[C@@]4(C)[C@@](O)(CC[C@@H](CC(=O)c5ccccc5N)[C@]4(C)C(=O)O)C2=CC(=O)[C@@H]1O3`, the 50% inhibitory concentration (IC50) in the series with RAW264.7 [1] was determined as 11 µM. Also, the result in the series on BMDM, in the series on RAW264.7 [5] and with RAW264.7 [8] was Active. For the same compound, the Activity entry in the series with RAW264.7 [2] is “Non-Toxic”. Further, the inhibition result (in series [3]; in series [4]; with RAW264.7 [6]; in the series on RAW264.7 [7]) was “Active” throughout.

On to `Cc1ccc(S(=O)(=O)/C=C/C#N)cc1`, for which, in the series on RAW264.7 [1], the IC50 amounted to 5 µM.
